In ChEMBL document CHEMBL3739260, “Substituted 4-hydroxy-1,2,3-triazoles: synthesis, characterization and first drug design applications through bioisosteric modulation and scaffold hopping approaches” (Medchemcomm, 2015):

Experiments:
[1] = Dissociation constant, pKa of the compound; type: physicochemical
Chitinase = target: T1, Chitinase (Onchocerca volvulus, UniProt Q25615); assay: Inhibition of Onchocerca volvulus chitinase by fluorescence based assay
T1 sequence (Q25615 whole entry): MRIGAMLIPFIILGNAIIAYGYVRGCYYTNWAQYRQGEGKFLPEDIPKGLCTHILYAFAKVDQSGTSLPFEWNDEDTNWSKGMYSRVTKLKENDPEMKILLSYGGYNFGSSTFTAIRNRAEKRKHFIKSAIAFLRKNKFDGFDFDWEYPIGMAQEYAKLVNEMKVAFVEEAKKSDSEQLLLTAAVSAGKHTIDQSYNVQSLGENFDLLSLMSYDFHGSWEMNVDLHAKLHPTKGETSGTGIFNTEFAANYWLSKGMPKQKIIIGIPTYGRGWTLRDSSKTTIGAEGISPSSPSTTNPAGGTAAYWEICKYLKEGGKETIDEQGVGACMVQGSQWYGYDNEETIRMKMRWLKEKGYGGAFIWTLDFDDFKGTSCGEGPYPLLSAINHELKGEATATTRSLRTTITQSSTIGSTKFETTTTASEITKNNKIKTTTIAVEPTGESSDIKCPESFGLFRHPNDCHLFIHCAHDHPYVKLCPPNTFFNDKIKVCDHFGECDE

[2] = Displacement of [3H]AMPA from AMPA receptor in rat cortical synaptosomes; type: subcellular
[3] = Displacement of [3H]KA from Kainate receptor in rat cortical synaptosomes; type: subcellular
Glutamate NMDA receptor = assay: Displacement of [3H]CGP39653 from NMDA receptor in rat cortical synaptosomes; type: subcellular

In the case of `CCOC(=O)c1nnn(C)c1O`, the pKa [1] is reported as 6.21.
`Cn1nnc(O)c1C(=O)Nc1ccc(Oc2ccccc2)cc1` gave an IC50 (Chitinase) of 4.69 µM.
`CCOC(=O)c1c(O)nnn1C` gave a pKa [1] of 5.54.
Molecule `CCOC(=O)c1nn(C)nc1O` has a pKa [1] of 5.14.
Molecule `CCOC(=O)c1nonc1O` has a pKa [1] of 3.24.
For `O=C(Nc1ccc(Oc2ccccc2)cc1)c1c(O)nnn1CC1CCCCC1`, the IC50 (Chitinase) was 5.11 µM.
With `CCOC(=O)c1cn(C)nc1O` the pKa [1] was 6.71.
With `O=C(Nc1ccc(Oc2ccccc2)cc1)c1nn(Cc2ccccc2)nc1OCc1ccccc1` the IC50 (Chitinase) was 0.41 µM.
`O=C(Nc1ccc(Oc2ccccc2)cc1)c1c(OCc2ccccc2)nnn1Cc1ccccc1` showed an IC50 (Chitinase) of 0.41 µM.
For `CCOC(=O)c1nnn(Cc2ccccc2)c1O`, the pKa [1] was 6.22.
`O=C(Nc1ccc(Oc2ccccc2)cc1)c1c(OCc2ccccc2)nnn1CC1CCCCC1` showed an IC50 (Chitinase) of 0.52 µM.
For `CCOC(=O)c1c(O)nnn1Cc1ccccc1`, the pKa [1] was 5.38.
With `CCOC(=O)c1nn(Cc2ccccc2)nc1O` the pKa [1] was 5.14.
In the case of `CCOC(=O)c1nsnc1O`, the pKa [1] is reported as 4.21.
With `N[C@@H](Cc1nsnc1O)C(=O)O` the IC50 [2] was 0.065 µM, the IC50 [3] was over 100 µM and the Ki (Glutamate NMDA receptor) was over 100 µM.
`Cn1nc(O)c(CC(N)C(=O)O)n1` (racemic) showed an IC50 [3] of over 100 µM and a Ki (Glutamate NMDA receptor) of over 100 µM.
Work on `Cn1nnc(O)c1CC(N)C(=O)O` (racemic) yielded a pKa [1] of 6.42, an IC50 [2] of 1.4 µM and an IC50 [3] of over 100 µM. For the same molecule, the Ki (Glutamate NMDA receptor) was over 100 µM.
`N[C@@H](CCC(=O)O)C(=O)O` [GLUTAMIC ACID] showed a pKa [1] of 4.2.
